Measured values reported in patent US20220289719A1, “HETEROCYCLIC COMPOUNDS AS MNK INHIBITORS” (NANJING INNOCARE PHARMA TECH CO., LTD., priority 2017, published 2022).
Structures can show the parent of a compound that is named as a salt.

Biological target: T1, Human recombinant full-length MNK1 protein (Homo sapiens, UniProt Q9BUB5)
T1 construct: Human recombinant full-length MNK1 protein; purchased Thermo PR9138A
Assay: MNK1 inhibitory activity assay (ADP-Glo in vitro kinase assay)
Format: biochemical
Conditions: 10 concentration points
Procedure: MNK1 Inhibitory Activity Assay: Evaluation of the effects of compounds of the invention on […] (MNK1) activity using in vitro kinase assays. The experimental methods are summarized as follows: The in vitro activity of MNK1 was determined by measuring the level of ADP produced in the kinase reaction using the ADP-Glo Kinase Assay Kit. The reaction buffer consisted of the following components: 50 mM HEPES, pH 7.5, 10 mM MgCl2, 1 mM EGTA, 0.01% Brij35. Human recombinant full-length MNK1 protein (Thermo, Cat. No. PR9138A) was diluted with a reaction buffer to a 3.13 ng/uL kinase solution. The substrate reaction solution consisted of a substrate diluted to 0.75 mg/ml in reaction buffer ([…], available from […] Domestic Company), 2250 uM ATP, the ADP-Glo reagent and kinase assay solution from Promega kit (Promega, V9102). […] If the compound IC50 value is very low, the initial concentration of the compound can be lowered. To a 384-well assay plate (Thermo, Cat. No. 264706) were added 1 uL of compound solution and 2 uL of MNK1 kinase solution. The mixture was mixed well and incubated for 30 minutes at room temperature; then 2 uL of substrate reaction solution was added, the reaction mixture was incubated for 120 minutes at room temperature. The reaction was terminated after an equal volume of 5uLADP-Glo solution was added, and the remaining ATP was completely consumed. After mixing for 60 minutes at room temperature, 10 ul of the kinase assay solution was added, and the mixture was uniformly mixed, and allowed to stand at room temperature for 40 minutes in the dark. The detection solution converts ADP into new ATP through coupled luciferase/luciferin, and ATP is converted into optical signal by Ultr-GloTM luciferase, which can be detected by Envision. The intensity of the light signal is proportional correlated with the amount of ADP produced in the kinase reaction, therefore, the activity of MNK1 kinase can be determined. In this experiment, the group without protein was used as a negative control (100% inhibition). The group with protein but without compounds was used as a positive control (0% inhibition).

T1 sequence (Q9BUB5 whole entry): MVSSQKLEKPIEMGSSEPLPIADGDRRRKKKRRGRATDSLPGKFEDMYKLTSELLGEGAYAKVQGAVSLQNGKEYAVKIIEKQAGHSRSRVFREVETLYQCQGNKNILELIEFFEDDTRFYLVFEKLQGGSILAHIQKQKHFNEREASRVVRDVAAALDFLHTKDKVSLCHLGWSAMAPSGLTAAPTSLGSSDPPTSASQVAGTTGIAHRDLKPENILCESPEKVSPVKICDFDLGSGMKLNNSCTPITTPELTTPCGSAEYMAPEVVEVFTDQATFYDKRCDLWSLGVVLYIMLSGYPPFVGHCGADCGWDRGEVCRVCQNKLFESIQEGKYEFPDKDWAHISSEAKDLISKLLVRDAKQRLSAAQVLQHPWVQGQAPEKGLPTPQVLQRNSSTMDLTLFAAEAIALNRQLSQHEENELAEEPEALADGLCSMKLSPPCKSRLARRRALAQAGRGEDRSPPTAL

Row | Compound | IC50 [nM]
1 | COc1cc2c(cnn2C(=O)OC(C)(C)C)cc1Nc1cc(NC(C)=O)ncn1 [Compound 1, 1-tert-Butoxycarbonyl-5-(6-acetylaminopyrimidin-4-ylamino)-6-methoxyindazole] | 15.5
2 | COc1cc2[nH]ncc2cc1Nc1cc(NC(C)=O)ncn1 [Compound 2, 5-(6-Acetylaminopyrimidin-4-ylamino)-6-methoxy-1H-indazole] | 59.5
3 | COc1cc2c(cnn2C(=O)OC(C)(C)C)cc1Nc1cc(NC(=O)C2CC2)ncn1 [Compound 3, 1-tert-Butoxycarbonyl-5-(6-cyclopropionamidopyrimidin-4-ylamino)-6-methoxyindazole] | 11.3
4 | COc1cc2c(cnn2C)cc1Nc1cc(NC(=O)C2CC2)ncn1 [Compound 5, 5-(6-Cyclopropionamidopyrimidin-4-ylamino)-6-methoxyl-methylindazole formate] | 585
5 | CCOc1cc2[nH]ncc2cc1Nc1cc(NC(=O)C2CC2)ncn1 [Compound 6, 5-(6-Cyclopropionamidopyrimidin-4-ylamino)-6-ethoxy-1H-indazole] | 29.8
6 | CC(C)Oc1cc2[nH]ncc2cc1Nc1cc(NC(=O)C2CC2)ncn1 [Compound 7, 5-(6-cyclopropionamidopyrimidin-4-ylamino)-6-isopropoxy-1H-indazole formate] | 44.9
7 | COc1cc2c(cnn2C(=O)C2CCCCC2)cc1Nc1cc(NC(=O)C2CC2)ncn1 [Compound 8, 1-Cyclohexanoyl-5-(6-cyclopropionamidopyrimidin-4-ylamino)-6-methoxyindazole] | 64.1
8 | COc1cc2[nH]ncc2cc1Nc1cc(N)ncn1 [Compound 9, 5-(6-aminopyrimidin-4-ylamino)-6-methoxy-1H-indazole] | 294
9 | COc1cc2[nH]ncc2cc1Nc1cc(NC(=O)c2ccccc2)ncn1 [Compound 10, 5-(6-benzoylaminopyrimidin-4-ylamino)-6-methoxy-1H-indazole] | 23.8
10 | COc1cc2[nH]ncc2cc1Nc1cc(NC(=O)c2ccccn2)ncn1 [Compound 11, 5-(6-(2-Pyridine) formylaminopyrimidin-4-ylamino)-6-methoxy-1H-indazole] | 532
11 | COc1cc2[nH]ncc2cc1Nc1cc(NC(=O)C(C)(C)C)ncn1 [Compound 12, 5-(6-Pivaloylaminopyrimidin-4-ylamino)-6-methoxy-1H-indazole] | 729
12 | COc1cc2c(cnn2C(=O)C(C)C)cc1Nc1cc(NC(=O)C2CC2)ncn1 [Compound 13, 1-Isobutyryl-5-(6-cyclopropionamidopyrimidin-4-ylamino)-6-methoxyindazole] | 225
13 | COc1cc2c(cnn2C(=O)C2CC2)cc1Nc1cc(NC(=O)C2CC2)ncn1 [Compound 14, 1-Cyclopropanoyl-5-(6-cyclopropionamidopyrimidin-4-ylamino)-6-methoxyindazole] | 1110
14 | COc1cc2nn(C(=O)C3CC3)cc2cc1Nc1cc(NC(=O)C2CC2)ncn1 [Compound 15, 2-Cyclopropanoyl-5-(6-cyclopropionamidopyrimidin-4-ylamino)-6-methoxyindazole] | 21
15 | COC(=O)n1ncc2cc(Nc3cc(NC(=O)C4CC4)ncn3)c(OC)cc21 [Compound 17, 1-Methoxyacyl-5-(6-cyclopropionamidopyrimidin-4-ylamino)-6-methoxyindazole] | 27.9
16 | CCOC(=O)n1ncc2cc(Nc3cc(NC(=O)C4CC4)ncn3)c(OC)cc21 [Compound 18, 1-Ethoxyacyl-5-(6-cyclopropionamidopyrimidin-4-ylamino)-6-methoxyindazole] | 10.5
17 | COc1cc2[nH]ncc2cc1Nc1cc(NC(=O)C(C)C)ncn1 [Compound 19, N-(6-((6-Methoxy-1H-indazol-5-yl)amino)pyrimidin-4-yl)isobutyramide] | 45
18 | COc1cc2[nH]ncc2cc1Nc1cc(Nc2ccccn2)ncn1 [Compound 20, 5-(6-(Pyridin-2-ylamino)pyrimidin-4-ylamino)-6-methoxy-1H-indazole formate] | 29.2
